± gives the expanded uncertainty stated by the source.
Details: Liquid

| Structure (SMILES) | vapor or sublimation pressure (313.15 K) | vapor or sublimation pressure (323.15 K) | vapor or sublimation pressure (333.15 K) | vapor or sublimation pressure (343.15 K) | vapor or sublimation pressure (363.15 K) | vapor or sublimation pressure (353.15 K) |
| --- | --- | --- | --- | --- | --- | --- |
| CC(F)F [1,1-difluoroethane] | 909 ± 6 kPa | 1181 ± 7 kPa | 1509 ± 10 kPa | 1898 ± 12 kPa | 2901 ± 18 kPa | – |
| CCCC [butane] | 377 ± 3 kPa | 495 ± 4 kPa | 638 ± 4 kPa | 810 ± 5 kPa | 1249 ± 8 kPa | 1012 ± 6 kPa |

Source: the NIST ThermoML archive (doi:10.1016/j.jct.2006.12.013)
